Assay results reported in patent US20080287323A1, “Treatment and Reuse of Oilfield Produced Water” (priority 2007, published 2008).

Tested on: bacteria and/or enzymes in the produced water
Test: Fann 50 viscosity test of guar or CMHPG gels prepared from pretreated oilfield produced water
Conditions: similar borate-crosslinked guar gels versus "as is" produced water
Method: Example of produced water treated with zirconyl chloride: Produced water PW4 was treated with 0.36 mL/L of zirconyl chloride solution M14. The mixture was stirred and then let stand for 30 minutes or more. Gels comprising borate-crosslinked guar were prepared with 8.8 mL/L M1, 6.0 mL/L M10, and 2.5 mL/L M11, in both the untreated and the M14-treated PW4 produced water. The viscosities of the fluids were tested with a Fann 50 viscometer.
Example of produced water treated with zirconium tetrachloride (ZTC): Produced water PW5-1 was treated with 1 mL/L of an aqueous solution of ZTC (containing an equivalent of 7.0 wt % ZrO2), stirred and then let stand for 1 day. Gels comprising borate-crosslinked guar were prepared with 8.8 mL/L M1, 6.0 mL/L M10 and 2.5 mL/L M11, using the treated (ES5) and untreated water (PW5-1, as is), and the viscosity of the fluids was tested with a Fann 50 viscometer at 93° C.
Examples of produced water treated with other inorganic heavy metal ions: Gels of borate-crosslinked guar were prepared from 8.8 mL/L M1, 6.0 mL/L M10 and 2.5 mL/L M11, added to two samples of BaCl2-treated PW6-1 produced water—0.28 g/L BaCl2 in ES6 and 3.4 g/L BaCl2 in ES7, followed by individual stirring for 30 minutes. […]

Compound: [Cl][Cu][Cl] [CuCl2]
- effect of produced water treatment on gel viscosity (in words): did not obviously improve the viscosity
